For series [1], the system named is rabbit platelet-rich plasma (collagen-induced platelet aggregation). The series is described as follows: Inhibition of collagen-induced platelet aggregation in rabbit platelet-rich plasma. The series is classed as cell-based. The following applies: 3 minute incubation; for inhibition at 100 µM / inhibition at 10 µM: Oryctolagus cuniculus, Platelet, 0.05 h; for inhibition at 10 µM: compound 10^-5 M.

In series [2] the test system is rabbit platelet-rich plasma (ADP-induced platelet aggregation). The series is described as follows: Inhibition of 10^-5 M ADP-induced platelet aggregation in rabbit platelet-rich plasma. In kind it is cell-based. The conditions noted are these: for inhibition at 100 µM / inhibition at 10 µM: Oryctolagus cuniculus, Platelet, 0.05 h; for inhibition at 100 µM: read-out: Inhibition (%) 10^-5 M ADP-Induced Aggregation; for inhibition at 10 µM: compound 10^-5 M.

The test system of a further series is platelet aggregation. The following applies: cited from earlier work.
A short description of another series: pKa. In kind it is physicochemical.
For series [3], the system named is platelet-rich plasma (platelet aggregation). The series is described as follows: Persistence of platelet aggregation inhibitory activity on incubation with platelet-rich plasma. The series is classed as cell-based, rabbit. On the procedure: The platelet aggregation inhibitory activity of representative compounds of the formula (I) were determined in terms of the percent inhibitory activity against 10-^5 M adenosine-5'-diphosphate (hereinafter referred to as "ADP")-induced or collagen-induced platelet aggregation in rabbit platelet-rich plasma according to the procedure described by G. V. R. Born and M. J. Cross in Journal of Physiology, Vol. 168, p. 178 (1963). […]

Setting [4] is: compound 10^-4 M, solvent PSS, 3 minute incubation.
The mark [5] stands for this setting: compound 10^-4 M, solvent DMSO, 3 minute incubation.
Where [6] appears, read: solvent DMSO, 3 minute incubation.
[7] abbreviates: J. Med. Chem., Vol. 16, No. 12, 1381-1388 (1973).

Like-named read-outs stand apart in the source and are kept apart here.

Data on 15 molecules can be found in US3968102A, “S-substituted-2-thioadenosines” (Kohjin Co., Ltd., priority 1974, dated 1976).

In the case of `CSc1nc(N)c2ncn([C@@H]3O[C@H](CO)[C@@H](O)[C@H]3O)c2n1` [2-Methylthioadenosine, reference compound], the inhibition at 100 µM in series [1] (compound 10^-4 M, solvent PSS) turned out to be 25%; in series [2] (setting [4]), 12%.

As to `CCCSc1nc(N)c2ncn([C@@H]3O[C@H](CO)[C@@H](O)[C@H]3O)c2n1` [2-Propylthioadenosine, reference compound], the inhibition at 100 µM in series [2] (setting [4]) amounted to 16%.

Take `Nc1nc(Sc2ccc([N+](=O)[O-])cc2)nc2c1ncn2[C@@H]1O[C@H](CO)[C@@H](O)[C@H]1O` [2-(p-Nitrophenyl)thioadenosine]: the inhibition at 100 µM in series [1] (compound 10^-4 M, solvent DMSO) is 81%; in series [2] (setting [5]), 92%.

With `Nc1nc(SCCCO)nc2c1ncn2[C@@H]1O[C@H](CO)[C@@H](O)[C@H]1O` [2-(γ-Hydroxypropyl)thioadenosine], the inhibition at 100 µM was 52% in series [1] (compound 10^-4 M, solvent PSS) and 58% in series [2] (setting [4]).

Take `Nc1nc(SC2CC3CCC2C3)nc2c1ncn2[C@@H]1O[C@H](CO)[C@@H](O)[C@H]1O` (stereo partly drawn) [2-(β-Norbornyl)thioadenosine]: the inhibition at 100 µM in series [1] (compound 10^-4 M, solvent DMSO) came out at 69%; in series [2] (setting [5]) it was 89%. Moreover, the inhibition at 10 µM in series [1] (solvent DMSO) came to 51%; in series [2] (setting [6]), 62%.

In the case of `Nc1ncnc2c1ncn2[C@@H]1O[C@H](COP(=O)(O)O)[C@@H](O)[C@H]1O` [Ammonium Adenosine-5'-monophosphate, reference compound], the inhibition at 100 µM in series [2] (setting [4]) was found to be 5%.

`Nc1nc(Sc2cccnc2)nc2c1ncn2[C@@H]1O[C@H](CO)[C@@H](O)[C@H]1O` [2-(β-Pyridyl)thioadenosine]: the “Inhibition (%) Collagen-Induced Aggregation” value in series [1] (compound 10^-4 M, solvent PSS) is listed as 52%. In addition, the “Inhibition (%) 10^-5 M ADP-Induced Aggregation” value in series [2] (setting [4]) was 61%.

As to `Cc1ccccc1Sc1nc(N)c2ncn([C@@H]3O[C@H](CO)[C@@H](O)[C@H]3O)c2n1` [2-(o-Tolyl)thioadenosine], the inhibition at 10 µM in series [1] (solvent DMSO) was found to be 57%; in series [2] (setting [6]) it was 61%.

`Nc1nc(S)nc2c1ncn2[C@@H]1O[C@H](CO)[C@@H](O)[C@H]1O` [2-Thioadenosine] yielded an inhibition at 100 µM in series [1] (compound 10^-4 M, solvent PSS) of 36%. The inhibition at 100 µM in series [2] (setting [4]) was 10%. In the series on platelet aggregation (setting [7]), the “inhibitory activity in ADP-induced platelet aggregation” value was “only a weak inhibitory activity” and the “inhibitory activity in collagen-induced platelet aggregation” value is recorded as “only a weak inhibitory activity”. The molecule further came in with a pKa in the series “pKa” of 7.8.

With `CSc1nc(N)c2ncn([C@@H]3O[C@H](COP(=O)(O)O)[C@@H](O)[C@H]3O)c2n1` [2-methylthioadenosine-5'-monophosphate], the “platelet aggregation inhibitory activity (prior art)” value in the series on platelet aggregation (in words) is on record as “only a weak platelet aggregation inhibitory activity”.

Regarding `CSc1nc(N)c2ncn([C@@H]3O[C@H](COP(=O)(O)O)[C@@H](O)[C@H]3O)c2n1` [Ammonium 2-Methylthioadenosine-5'-monophosphate, reference compound], the inhibition at 100 µM in series [2] was 35%.

`Nc1nc(SCCO)nc2c1ncn2[C@@H]1O[C@H](CO)[C@@H](O)[C@H]1O` [2-(β-Hydroxyethyl)thioadenosine]: the inhibition at 100 µM is 30% in series [1] (compound 10^-4 M, solvent PSS) and 52% in series [2] (setting [4]).

Consider `Nc1ncnc2c1ncn2[C@@H]1O[C@H](CO)[C@@H](O)[C@H]1O` [Adenosine], for which the inhibition at 100 µM is 68% in series [1] (compound 10^-4 M, solvent DMSO); 71% in series [1] (compound 10^-4 M, solvent PSS); 76% in series [2] (setting [5]); 80% in series [2] (setting [4]). Besides, the inhibition at 10 µM was determined as 51% in series [1] (solvent PSS) and 58% in series [2] (solvent PSS, 3 minute incubation). The “inhibitory activity after 60 minutes of incubation with the platelet-rich plasma” value in series [3] (60 minutes of incubation) is on record as “disappears completely after 60 minutes of incubation”. In series [3] (in words, from Table 1), the “inhibitory activity (control)” value is given as “fairly potent inhibitory activity”.

Turning to `Nc1nc(Sc2ccccc2)nc2c1ncn2[C@@H]1O[C@H](CO)[C@@H](O)[C@H]1O` [2-Phenylthioadenosine], the inhibition at 100 µM came to 82% in series [1] (compound 10^-4 M, solvent DMSO) and 98% in series [2] (setting [5]). In addition, the inhibition at 10 µM amounted to 58% in series [1] (solvent DMSO) and 62% in series [2] (setting [6]).

Turning to `Nc1nc(SC2C3CC4CC(C3)CC2C4)nc2c1ncn2[C@@H]1O[C@H](CO)[C@@H](O)[C@H]1O` (stereo partly drawn) [2-(β-Adamantyl)thioadenosine], the inhibition at 100 µM is 72% in series [1] (compound 10^-4 M, solvent DMSO) and 95% in series [2] (setting [5]). Besides, the inhibition at 10 µM in series [1] (solvent DMSO) worked out at 61%; in series [2] (setting [6]) it was 72%.

What is called inhibition is the relative decrease from the control value, in per cent. In general, pKa refers to the negative logarithm of the acid dissociation constant. Low values mean a group that gives up its proton readily, high ones a group that holds its proton tightly.
